Measurements published in PMC7143549, “Anticancer Activities of Meroterpenoids Isolated from the Brown Alga Cystoseira usneoides against the Human Colon Cancer Cells HT-29” (Foods, 2020).
Values after ≈ are worked out from the molar mass of the structure shown. Read-outs that look alike come from different tables or passages of the source.

Key:
HT-29 cells [1] = settings: cited from earlier work
HT-29 colon cancer cells [2] = test: Annexin V-FITC/PI flow cytometry apoptosis induction assay; assay type: cell-based, human; settings: 24 h; for necrosis (dead cells): 30 μg/mL
Method: Quantitative assessment of apoptosis was performed by flow cytometry using an Annexin V-FITC Apoptosis Detection Kit. Briefly, 1 × 10^6 HT-29 cells were seeded per well in six-well plates and incubated for 24 h, followed by the addition of the AMTs dissolved in DMSO (final concentrations of 10, 20, and 30 µg/mL for compounds 1, 2, 5, 6, 7, and 8, and 30, 60, and 90 µg/mL for compounds 3 and 4, and less than 0.05% DMSO) and incubation for 24 h. Curcumin (final concentrations of 50 and 75 μM) was used as positive control. The cells were then washed, harvested with trypsin, and centrifuged at 1500 rpm (5 min, 25 °C). The pellet was resuspended in 195 µL of 1 × Annexin buffer and then stained with 5 μL of Annexin V-FITC and 10 μL of PI for 10 min at room temperature, in the dark. To this mixture 200 μL of 1 × Annexin buffer was added before analysis using a Cytomics FC500 flow cytometer (Beckman Coulter, Indianapolis, IN, USA). Following a gating strategy, flow cytometry plots of size (FS) and complexity (SS) of the HT-29 cells were previously established for the elaboration of a measurement protocol. The normal healthy cells, early apoptosis, late apoptosis, and necrotic populations were represented by annexin V-negative/PI-negative population, annexin V-positive/PI-negative, annexin V-positive/PI-positive and annexin-negative/PI-positive cells, respectively. A total of 10,000 cellular events in each sample were analyzed using DML program.

[3] = tested on: normal human colonic epithelial cells CCD 841 CoN; test: Sulforhodamine B (SRB) cell viability assay, CCD 841 CoN; assay type: cell-based; settings: normal colon cells, 72 h of treatment, mean ± SE of three experiments, read-out: IC50 CCD841 CoN
Method: (§1) Cell viability was quantified using the Sulforhodamine B assay described by Skehan et al.. Cells were plated with a density of 5 × 10^3 (HT-29) and 1 × 10^4 (CCD 841 CoN) cells/well and allowed to attach at 37 °C in an atmosphere with 5% CO2. After 24 h, the AMTs dissolved in DMSO were added to the cells (final concentrations of 10, 20, 30, and 50 µg/mL and less than 0.05% of DMSO) and the plates were incubated for 72 h. Then, the cells were fixed by adding 50 μL of TCA (50%) to each well and the plates were maintained for 1 h at 4 °C. The plates were washed five times with deionized water, air-dried, and stained for 30 min at room temperature with 100 μL of 0.4% (w/v) SRB prepared in 1% (v/v) acetic acid. The plates were rinsed quickly five times with 1% acetic acid to remove unbound dye, followed by air-drying. The bound dye was solubilized in 2 mM Tris base (100 μL/well) for 5 min. Optical densities were read on a microplate reader (Spectrophotometer LabsystemsMultiskan EX, λ 492 nm). Three independent assays were conducted, each one in duplicate. A standard curve was constructed for each experiment and used for converting the measured optical density values into numbers of viable cells/well. The inhibition rate was used to evaluate the cell viability and its algorithm was the following formula: ((ODcontrol − ODtreatment)/ODcontrol) × 100; OD, optical density. The OD492 for control cells was taken as 100% viability. The half maximal inhibitory concentration (IC50) was calculated. The selectivity index (SI) of each compound was calculated as IC50 of the compound against the CCD 841 CoN normal cell line/IC50 of the same compound against the HT-29 cancer cell line.

[4] = tested on: HT-29 human colon carcinoma cells; test: Sulforhodamine B (SRB) cell viability assay, HT-29; assay type: cell-based; settings: for IC50: Homo sapiens, HT-29, 72 h; for Selectivity Index (SI): IC50 for normal cells CCD 841 CoN / IC50 for cancer cells HT-29
Method: as §1

p-AKT in HT-29 cells = test: Western blot of phosphorylated AKT; assay type: cell-based, human; settings: 24 h; 10 and 20 μg/mL for 1, 2, 5, 6, 7, 8; 30 and 60 μg/mL for 3 and 4
Method: (§2) Cells were cultured to 80% confluence at 37 °C. After 24 h of treatment with the compounds (10 and 20 µg/mL for compounds 1, 2, 5, 6, 7, and 8, and 30 and 60 µg/mL for compounds 3 and 4), HT-29 cells were rinsed twice with ice-cold PBS, and then lysed immediately in lysis buffer (250 mM NaCl, 50 mM Tris (pH 7.5), 0.5 mM EDTA, 5 mM EGTA, 8 mM MgCl2, 1 mM PMSF, 0.01 mg/mL pepstatin A, 0.01 mg/mL leupeptin, 0.01 mg/mL aprotinin, 1% Triton X-100). After centrifugation at 12,000 g for 3 min at 4°C to separate the cellular debris, the supernatant was collected and stored at −80°C until use. The protein concentrations were determined using Bio-Rad Protein Assay (BioRad, Richmond, CA, USA), according to the manufacturer’s instructions.
(§3) Equal protein content (50 μg) samples of cell lysates were separated on 10% SDS–polyacrylamide gel and transferred to polyvinylidene difluoride membranes (Hybond-P, Amershan Biosciences, Little Chalfont, UK). The membranes were blocked with 5% (w/v) non-fat dry milk in Tris-buffered saline containing 0.1% Tween-20 buffer (pH 7.4) (TBST) for 1 h at room temperature and incubated with agitation with specific antibodies: anti-pERK1/2 (Cell Signaling; 1:1000), anti-pJNK (Cell Signaling; 1:1000), anti-pAKT (Cell Signaling; 1:1000), anti-β-actin (Sigma-Aldrich; 1:500). Membranes were incubated overnight at 4°C with gentle shaking. The secondary antibody was a peroxidase-conjugated goat anti-mouse or -rabbit antibody (1:10,000; DakoCytomation, Carpinteria, CA, USA). After washing the membrane three times in TBST buffer (10 min), the signals were detected using an enhanced chemiluminescence light-detecting kit (Super-Signal West Pico Chemiluminescent Substrate, Pierce, IL, USA), according to the manufacturer’s instructions and exposed to an X-ray film (GE Healthcare Ltd., Amersham, UK). The protein band densities were analyzed and quantified with a Scientific Imaging Systems (Biophotonics ImageJ Analysis Software, National Institute of Mental Health, Bethesda, MD, USA). β-actin was used to confirm the equal loading and transfer of proteins.

HT-29 cells [5] = test: Wound migration assay; assay type: cell-based, human; settings: 24 h, wound-healing; for inhibition at 10 µg/mL: Homo sapiens, HT-29, 10 μg/mL, read-out: inhibition of cell migration
Method: For cell migration assay, HT-29 cells were seeded in six-well culture plates and allowed to grow to 80%–90% confluence for the experiment. After aspirating the medium, similar sized wounds were performed in the monolayer cells using a sterile micropipette tip. Wounded monolayer cells were washed three times with PBS to remove cell debris and then replaced with complete McCoy’s medium. HT-29 cells were treated with the AMTs (10 µg/mL for compounds 1, 2, 5, 6, 7, and 8, and 30 µg/mL for compounds 3 and 4) and incubated for 24h. For the image analysis of the effect of each treatment on cell migration, the wounded area was photographed immediately after scratching and after 24 h. The level of cell migration was determined using NIH Image software (Image J 1.44g, Wayne Rasband, USA) and then expressed as a percentage of wound closure area using the equation: Migration rate (%) = [(wound area at 0 h − wound area at 24 h)/wound area at 0 h] × 100%.

p-ERK1/2 in HT-29 cells = test: Western blot of phosphorylated ERK1/2; assay type: cell-based, human; settings: 24 h; 10 and 20 μg/mL
Method: as §2, §3

HT-29 colon cancer cells [6] = test: Cell cycle analysis by flow cytometry (PI); assay type: cell-based, human; settings: 24 h; 30 μg/mL of 1, 2, 5, 6, 7, 8 and 90 μg/mL of 3 and 4 (Figure 4B)
Method: HT-29 cells (1 × 10^6 cells/well) were seeded in six-well plates and incubated for 24 h, followed by treatment with AMTs dissolved in DMSO (final concentrations of 10, 20, and 30 µg/mL for compounds 1, 2, 5, 6, 7, and 8, and 30, 60, and 90 µg/mL for compounds 3 and 4, and always below 0.05% DMSO) and 24 h of additional incubation. Colchicine (final concentration of 0.2 μg/mL) was used as positive control. The cells were then washed, harvested with trypsin, and centrifuged at 1500 rpm (5 min, 25 °C). The resulting pellet was fixed with ice-cold 70% ethanol (1 mL/10^6 cells) and the samples were stored at −4°C overnight. After fixation, the cells were washed with PBS, stained with PBS containing 5 mg/mL of RNase A, and incubated for 48 h at 4 °C. Subsequently, 50 μL of 0.1 mg/mL of IP was added and incubated for 1 h at 4 °C. The relative DNA content per cell was analyzed using a Cytomics FC500 flow cytometer (Beckman Coulter, Indianapolis, IN, USA). The data acquisition was performed with the DML program and the analysis of the acquired data with the CXP Software (Beckman Coulter, Indianapolis, IN, USA).

p-JNK in HT-29 cells = test: Western blot of phosphorylated JNK; assay type: cell-based, human; settings: 24 h; 10 and 20 μg/mL for 1, 2, 5, 6, 7, 8; 30 and 60 μg/mL for 3 and 4
Method: as §2, §3

[7] = colon cancer cells, 72 h of treatment, SRB, mean ± SE of three experiments

In the case of sargachromanol R, the “IC50 growth of HT-29 cells” value (HT-29 cells [1]) is listed as 3.4 µg/mL.

For `COc1c(C)cc(O)cc1C/C=C(\C)CC(=O)/C=C(\C)CCCC(C)C(=O)/C=C/C(C)(C)O` (centres unmarked) [Compound 6, amentadione-1′-methyl ether], the “necrosis (dead cells)” value (HT-29 colon cancer cells [2]) was 59.55%, the IC50 [3] was 48.4 ± 3.84 µg/mL (≈ 106 µM) and the IC50 [4, 7] was 10.7 ± 0.27 µg/mL (≈ 23.5 µM). The “Selectivity Index (SI)” value [4] was 4.51, the “expression of p-AKT protein vs control” value (p-AKT in HT-29 cells) was “no significant reduction” and the inhibition at 10 µg/mL (HT-29 cells [5]) was 45.3%. The “p-ERK1/2 level vs control” value (p-ERK1/2 in HT-29 cells) was “significantly reduced” and the “accumulation of cells at the G2/M phase (cell cycle arrest, words)” value (from here on “accumulation of cells at the G2/M phase”) (HT-29 colon cancer cells [6]) was “not significant”.

In the case of zonaquinone acetate, the IC50 (HT-29 cells [1]; read-out: IC50 growth of HT-29 cells) is listed as 17.3 µM and the “IC50 growth of HT-29 cells” value (HT-29 cells [1]; value in brackets, converted from μM) is listed as 7.8 µg/mL.

With `COc1c(C)cc(O)cc1C/C=C(\C)CC(=O)/C=C(/C)CCCC(C)=O` [Compound 4, cystomexicone A] the “induction of apoptosis or death of HT-29 cells” value (HT-29 colon cancer cells [2]; 4 tested at 30-90 μg/mL, 7 at 10-30 μg/mL) was “did not induce neither apoptosis nor death”, the IC50 [3] was 61.9 ± 2.37 µg/mL (≈ 173 µM) and the IC50 [4, 7] was 34.3 µg/mL (≈ 95.7 µM). The “Selectivity Index (SI)” value [4] was 1.68, the “IC50 HT-29” value [4, 7] was 36.86 ± 2.86 µg/mL (≈ 103 µM) and the “expression of p-AKT protein vs control” value (p-AKT in HT-29 cells) was “significantly downregulated”. For the same compound, the “inhibition of cell migration” value (HT-29 cells [5]; 30 μg/mL (methods, Figure 5B)) was “no significant effects”, the “phospho-JNK level vs control” value (p-JNK in HT-29 cells) was “decreased phosphorylation” and the “accumulation of cells at the G2/M phase” value (HT-29 colon cancer cells [6]) was “significant”.

For `COc1c(C)cc(O)cc1C/C=C(\C)CC(=O)/C=C(/C)CCCC(C)C(=O)/C=C/C(C)(C)O` (stereo not drawn) [Compound 5, 6-cis-amentadione-1′-methyl ether], the “necrosis (dead cells)” value (HT-29 colon cancer cells [2]) was 72.75%, the IC50 [3] was 41 ± 9.8 µg/mL (≈ 89.7 µM) and the IC50 [4, 7] was 7.83 ± 0.05 µg/mL (≈ 17.1 µM). For the same compound, the “Selectivity Index (SI)” value [4] was 5.23, the “expression of p-AKT protein vs control” value (p-AKT in HT-29 cells) was “no significant reduction” and the inhibition at 10 µg/mL (HT-29 cells [5]) was 36.2%. For the same compound, the “p-ERK1/2 level vs control” value (p-ERK1/2 in HT-29 cells) was “significantly reduced”, the “phospho-JNK level vs control” value (p-JNK in HT-29 cells) was “decreased phosphorylation” and the “accumulation of cells at the G2/M phase” value (HT-29 colon cancer cells [6]) was “significant”.
